The text below walks through data of ChEMBL document CHEMBL1137135 (Bioorg Med Chem Lett, 2004).

SMILES strings stand for the structures.

For one test, the species on record is Rattus norvegicus. Kind of test: In vitro anticoagulant activity of compound was determined in rat. Type of test: functional.
Regarding `CN(C)Cc1ccccc1-c1ccc(C(=O)N[C@H](CC(=O)Nc2ccc(Br)cn2)C(=O)N2CCCCC2)cc1`, the “2X PT” value is 1.98 µM and the “TG 2X lag” value stood at 0.42 µM.

Tested on in another test: not listed separately
Kind of test: In vitro inhibitory activity against Factor Xa.
Broadly, the IC50 is the point on the concentration scale where inhibition reaches its midpoint. Lower therefore signals greater potency. `NC(CNC(=O)c1ccc(-c2ccccc2S(N)(=O)=O)cc1)C(=O)Nc1ccc(Br)cn1` (stereo not given) had an IC50 of 1650 nM.

In the case of `NS(=O)(=O)c1ccccc1-c1ccc(NC(=O)CCC(=O)Nc2ccc(Br)cn2)cc1`, the IC50 came to 20 nM. Still for that read-out and setting: the value for `NS(=O)(=O)c1ccccc1-c1ccc(C(=O)NCCNS(=O)(=O)c2cc3cc(Cl)ccc3[nH]2)cc1` was 1900 nM; that for `NS(=O)(=O)c1ccccc1-c1ccc(NC(=O)C(CC(=O)Nc2ccc(Br)cn2)NC(=O)C2CCCNC2)cc1` (stereo not given) was 442 nM; that for `NS(=O)(=O)c1ccccc1-c1ccc(C(=O)NC(CC(=O)Nc2ccc(Br)cn2)C(=O)N2CCNCC2)cc1` (stereo not given) was 90.9 nM. With `O=C(C[C@@H](NC(=O)c1ccc(-c2ccccc2CN2CCOCC2)cc1)C(=O)N1CCCCC1)Nc1ccc(Cl)cn1`, the IC50 worked out at 1.8 nM.

In turn, `CN(C)CCNC(=O)C(CC(=O)Nc1ccc(Br)cn1)NC(=O)c1ccc(-c2ccccc2S(N)(=O)=O)cc1` (stereo not given) gave an IC50 of 49.7 nM. As for `O=C(C[C@@H](NC(=O)c1ccc(-c2ccccc2CN2CCCC2)cc1)C(=O)N1CCCCC1)Nc1ccc(Br)cn1`, the midpoint of inhibition, the IC50, lay at 1 nM. Same read-out and setting: to `CN(C)C(=N)c1ccc(C(=O)N[C@@H](CC(=O)Nc2ccc(Cl)cn2)C(=O)N2CCCCC2)cc1` belongs 24 nM. For `CN(C)Cc1nccn1-c1ccc(C(=O)N[C@H](CC(=O)Nc2ccc(Cl)cn2)C(=O)N2CCCCC2)cc1`, inhibition was half-maximal at 7.6 nM (IC50).

The molecule `COCCN(C)Cc1ccccc1-c1ccc(C(=O)N[C@H](CC(=O)Nc2ccc(Cl)cn2)C(=O)N2CCCCC2)cc1` displayed an IC50 of 4.8 nM. Still for that read-out and setting: the value for `CN(C)C(=N)c1ccc(C(=O)N[C@H](CC(=O)Nc2ccc(Br)cn2)C(=O)N2CCCCC2)cc1` was 4.6 nM. `NS(=O)(=O)c1ccccc1-c1ccc(NC(=O)CCC(=O)Nc2ccc(Cl)cn2)cc1` returned an IC50 of 37 nM. Same read-out and setting: the value for `CCCCOC(=O)NC(CNC(=O)c1ccc(-c2ccccc2S(N)(=O)=O)cc1)C(=O)Nc1ccc(Br)cn1` (stereo not given) was 1250 nM; that for `NS(=O)(=O)c1ccccc1-c1ccc(C(=O)NCCNS(=O)(=O)c2ccc(Cl)cc2)cc1` was > 10000 nM; that for `NS(=O)(=O)c1ccccc1-c1ccc(NC(=O)C(CC(=O)Nc2ccc(Br)cn2)NC(=O)c2ccncc2)cc1` (stereo not given) was 43.8 nM. Consider `NCC(=O)NC(CC(=O)Nc1ccc(Br)cn1)C(=O)Nc1ccc(-c2ccccc2S(N)(=O)=O)cc1` (stereo not given), for which the midpoint of inhibition, the IC50, lay at 150 nM. As to `NS(=O)(=O)c1ccccc1-c1ccc(C(=O)NC(CC(=O)Nc2ccc(Br)cn2)C(=O)N2CCOCC2)cc1` (stereo not given), the IC50 was determined as 22.9 nM. Regarding `CS(=O)(=O)NC(CNC(=O)c1ccc(-c2ccccc2S(N)(=O)=O)cc1)C(=O)Nc1ccc(Br)cn1` (stereo not given), the IC50 was 1250 nM. On the same count and under the same terms, the value for `NS(=O)(=O)c1ccccc1-c1ccc(C(=O)NCCNC(=O)c2ccc(Cl)s2)cc1` was 5.7 nM. The same measure, in the same setting: the value for `NS(=O)(=O)c1ccccc1-c1ccc(C(=O)NCCNS(=O)(=O)c2ccc3cc(Br)ccc3c2)cc1` was 9300 nM.

Consider `NS(=O)(=O)c1ccccc1-c1ccc(C(=O)NCC(NC(=O)Nc2ccccc2)C(=O)Nc2ccc(Br)cn2)cc1` (stereo not given), for which the IC50 turned out to be 8500 nM. Regarding `CN1CCN=C1c1ccc(C(=O)N[C@H](CC(=O)Nc2ccc(Br)cn2)C(=O)N2CCCCC2)cc1`, the concentration for half-maximal inhibition (IC50) was determined as 8.2 nM. Same read-out and setting: the value for `O=C(C[C@H](NC(=O)c1ccc(-c2ccccc2CN2CCCC2)cc1)C(=O)N1CCCCC1)Nc1ccc(Cl)cn1` was 2.7 nM. Regarding `NS(=O)(=O)c1ccccc1-c1ccc(C(=O)NCCNC(=O)c2ccccc2)cc1`, the IC50 was > 10000 nM. As to `CN1CCN=C1c1ccc(C(=O)N[C@H](CC(=O)Nc2ccc(Cl)cn2)C(=O)N2CCCCC2)cc1`, the IC50 was found to be 26 nM. In turn, `NS(=O)(=O)c1ccccc1-c1ccc(C(=O)NCCNC(=O)c2ccc(Br)cc2)cc1` gave a concentration for half-maximal inhibition (IC50) of 960 nM. Consider `NS(=O)(=O)c1ccccc1-c1ccc(C(=O)NCCC(=O)Nc2ccc(Br)cc2)cc1`, for which 29 nM corresponded to half-maximal inhibition (IC50). For `CN(C)Cc1nccn1-c1ccc(C(=O)N[C@H](CC(=O)Nc2ccc(Br)cn2)C(=O)N2CCCCC2)cc1`, the IC50 came out at 3.1 nM. Still for that read-out and setting: the value for `NS(=O)(=O)c1ccccc1-c1ccc(C(=O)NC(CC(=O)Nc2ccc(Br)cn2)C(=O)N2CCCCCC2)cc1` (stereo not given) was 4.98 nM.

Molecule `COCCN(C)Cc1ccccc1-c1ccc(C(=O)N[C@H](CC(=O)Nc2ccc(Br)cn2)C(=O)N2CCCCC2)cc1` had a 50% inhibitory concentration (IC50) of 1.3 nM.

As to `NS(=O)(=O)c1ccccc1-c1ccc(C(=O)NC(CC(=O)Nc2ccc(Br)cn2)C(=O)N2CCS(=O)(=O)CC2)cc1` (stereo not given), the IC50 turned out to be 40.1 nM. The molecule `NS(=O)(=O)c1ccccc1-c1ccc(NC(=O)CCC(=O)Nc2ccc(Cl)cc2)cc1` returned a concentration for half-maximal inhibition (IC50) of 12 nM. In turn, `NS(=O)(=O)c1ccccc1-c1ccc(NC(=O)CCNC(=O)c2ccc(Cl)s2)cc1` came in with an IC50 of 130 nM. Still for that read-out and setting: the value for `CN(C)C(=N)c1ccc(C(=O)N[C@H](CC(=O)Nc2ccc(Cl)cn2)C(=O)N2CCCCC2)cc1` was 12 nM; that for `NS(=O)(=O)c1ccccc1-c1ccc(NC(=O)C(CC(=O)Nc2ccc(Br)cn2)NC(=O)c2cccnc2)cc1` (stereo not given) was 47.2 nM. Still for that read-out and setting: the value for `NS(=O)(=O)c1ccccc1-c1ccc(NC(=O)/C=C/C(=O)Nc2ccc(Cl)cc2)cc1` (stereo in doubt; trans) was > 10000 nM; that for `NS(=O)(=O)c1ccccc1-c1ccc(C(=O)NCCNC(=O)c2cc3cc(Cl)ccc3[nH]2)cc1` was 760 nM; that for `NS(=O)(=O)c1ccccc1-c1ccc(NC(=O)C(CC(=O)Nc2ccc(Br)cn2)NC(=O)Nc2ccccc2)cc1` (stereo not given) was 37 nM.

For `O=C(C[C@@H](NC(=O)c1ccc(-c2ccccc2CN2CCOCC2)cc1)C(=O)N1CCCCC1)Nc1ccc(Br)cn1`, the IC50 worked out at 1.1 nM. In turn, `NC(CC(=O)Nc1ccc(Br)cn1)C(=O)Nc1ccc(-c2ccccc2S(N)(=O)=O)cc1` (stereo not given) came in with an IC50 of 145 nM.

With `CCOC(=O)CNC(=O)C(CC(=O)Nc1ccc(Br)cn1)NC(=O)c1ccc(-c2ccccc2S(N)(=O)=O)cc1` (stereo not given), the 50% inhibitory concentration (IC50) was 3.3 nM. On the same count and under the same terms, the value for `COc1ccc(C(=O)NCCNC(=O)c2ccc(-c3ccccc3S(N)(=O)=O)cc2)cc1` was 2600 nM. Still for that read-out and setting: to `O=C(C[C@H](NC(=O)c1ccc(-c2ccccc2CN2CCCC2)cc1)C(=O)N1CCCCC1)Nc1ccc(Br)cn1` belongs 230 nM; to `O=C(C[C@@H](NC(=O)c1ccc(-c2ccccc2CN2CCCC2)cc1)C(=O)N1CCCCC1)Nc1ccc(Cl)cn1`, 2 nM. On the same count and under the same terms, the value for `CN(C)CCN(C)C(=O)C(CC(=O)Nc1ccc(Br)cn1)NC(=O)c1ccc(-c2ccccc2S(N)(=O)=O)cc1` (stereo not given) was 45.5 nM.

In the case of `CCC(=O)NC(CC(=O)Nc1ccc(Br)cn1)C(=O)Nc1ccc(-c2ccccc2S(N)(=O)=O)cc1` (stereo not given), the IC50 came out at 36.5 nM.

Take `CN(C)Cc1ccccc1-c1ccc(C(=O)N[C@H](CC(=O)Nc2ccc(Br)cn2)C(=O)N2CCCCC2)cc1`: the midpoint of inhibition, the IC50, lay at 0.65 nM. `COCCN(C)Cc1ccccc1-c1ccc(C(=O)N[C@@H](CC(=O)Nc2ccc(Cl)cn2)C(=O)N2CCCCC2)cc1`: it took 9.3 nM to reach half-maximal inhibition (IC50). Consider `NS(=O)(=O)c1ccccc1-c1ccc(C(=O)NCCC(=O)Nc2ccc(Cl)cc2)cc1`, for which the IC50 is 17 nM.

The molecule `NS(=O)(=O)c1ccccc1-c1ccc(NC(=O)/C=C/C(=O)Nc2ccc(Cl)cc2)cc1` (stereo in doubt; cis) came in with an IC50 of 67 nM. `COC(=O)C(CC(=O)Nc1ccc(Br)cn1)NC(=O)c1ccc(-c2ccccc2S(N)(=O)=O)cc1` (stereo not given) displayed a half-inhibitory concentration (IC50) of 24.7 nM. Molecule `NS(=O)(=O)c1ccccc1-c1ccc(C(=O)NC(CC(=O)Nc2ccc(Br)cn2)C(=O)NC2CCCC2)cc1` (stereo not given) showed an IC50 of 15.9 nM. Still for that read-out and setting: the value for `CC(=O)NC(CC(=O)Nc1ccc(Br)cn1)C(=O)Nc1ccc(-c2ccccc2S(N)(=O)=O)cc1` (stereo not given) was 182 nM; that for `CNCCNC(=O)C(CC(=O)Nc1ccc(Br)cn1)NC(=O)c1ccc(-c2ccccc2S(N)(=O)=O)cc1` (stereo not given) was 43.4 nM. On the same count and under the same terms, to `NS(=O)(=O)c1ccccc1-c1ccc(NC(=O)C(CC(=O)Nc2ccc(Br)cn2)NC(=O)C(F)(F)F)cc1` (stereo not given) belongs 200 nM.

`NS(=O)(=O)c1ccccc1-c1ccc(C(=O)NC(CC(=O)Nc2ccc(Br)cn2)C(=O)Nc2ccccc2)cc1` (stereo not given) showed a 50% inhibitory concentration (IC50) of 26.5 nM. Still for that read-out and setting: to `CN(C)CC(=O)NC(CC(=O)Nc1ccc(Br)cn1)C(=O)Nc1ccc(-c2ccccc2S(N)(=O)=O)cc1` (stereo not given) belongs 215 nM. As to `O=C(C[C@H](NC(=O)c1ccc(-c2ccccc2CN2CCOCC2)cc1)C(=O)N1CCCCC1)Nc1ccc(Br)cn1`, the IC50 amounted to 290 nM. In the case of `NS(=O)(=O)c1ccccc1-c1ccc(NC(=O)C(CC(=O)Nc2ccc(Br)cn2)NC(=O)C2CCNCC2)cc1` (stereo not given), 194 nM corresponded to half-maximal inhibition (IC50).

`CN(C)Cc1nccn1-c1ccc(C(=O)N[C@@H](CC(=O)Nc2ccc(Cl)cn2)C(=O)N2CCCCC2)cc1` displayed a 50% inhibitory concentration (IC50) of 9.2 nM. The molecule `NS(=O)(=O)c1ccccc1-c1ccc(C(=O)NCCNS(=O)(=O)c2cc3ccc(Cl)cc3s2)cc1` yielded an IC50 of 1090 nM.

As to `CNC(=O)C(CC(=O)Nc1ccc(Br)cn1)NC(=O)c1ccc(-c2ccccc2S(N)(=O)=O)cc1` (stereo not given), the half-maximal inhibitory concentration (IC50) was found to be 17.4 nM.

`NS(=O)(=O)c1ccccc1-c1ccc(C(=O)NCCNC(=O)c2cccc(Cl)c2)cc1`: the half-maximal inhibitory concentration (IC50) was determined as 1500 nM.

On to `CN1CCN=C1c1ccc(C(=O)N[C@@H](CC(=O)Nc2ccc(Cl)cn2)C(=O)N2CCCCC2)cc1`, for which 28 nM corresponded to half-maximal inhibition (IC50). Same read-out and setting: the value for `COCCN(C)Cc1ccccc1-c1ccc(C(=O)N[C@@H](CC(=O)Nc2ccc(Br)cn2)C(=O)N2CCCCC2)cc1` was 940 nM; that for `NS(=O)(=O)c1ccccc1-c1ccc(NC(=O)CCC(=O)Nc2ccc(Br)cc2)cc1` was 65 nM; that for `NS(=O)(=O)c1ccccc1-c1ccc(C(=O)NC(CC(=O)Nc2ccc(Br)cn2)C(=O)N2CCCC2)cc1` (stereo not given) was 14.5 nM.

Molecule `CN1CCN(C(=O)C(CC(=O)Nc2ccc(Br)cn2)NC(=O)c2ccc(-c3ccccc3S(N)(=O)=O)cc2)CC1` (stereo not given) gave a half-maximal inhibitory concentration (IC50) of 26.5 nM. Still for that read-out and setting: to `CC(=O)NC(CNC(=O)c1ccc(-c2ccccc2S(N)(=O)=O)cc1)C(=O)Nc1ccc(Br)cn1` (stereo not given) belongs 805 nM; to `CN(C)Cc1nccn1-c1ccc(C(=O)N[C@@H](CC(=O)Nc2ccc(Br)cn2)C(=O)N2CCCCC2)cc1`, 330 nM; to `O=C(C[C@H](NC(=O)c1ccc(-c2ccccc2CN2CCOCC2)cc1)C(=O)N1CCCCC1)Nc1ccc(Cl)cn1`, 3.6 nM.

Target in the next test: not listed separately
In words: Binding affinity of compound towards Factor Xa.
What is called Ki is a dissociation constant, usually derived from enzyme kinetics or from competition with a known ligand. Low values mean a stronger hold on the target, high ones a looser hold on the target. `CN(C)Cc1ccccc1-c1ccc(C(=O)N[C@H](CC(=O)Nc2ccc(Br)cn2)C(=O)N2CCCCC2)cc1`: the Ki came out at 0.14 nM.
